Results published in ChEMBL document CHEMBL1201862, “PubChem BioAssay data set” (2004).
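Exposure lasted 48 hours, with cells grown in 96-well plates and compounds tested at five concentrations. Here, GI50 denotes the concentration required for 50% inhibition of growth.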 The source made the active and inactive calls. Cut-off read from the data, not from the text of the source: active = GI50 up to about 1.1 µM and inactive = higher.

Tests used:
Experiment in all cases: inhibition of tumour cell growth, NCI panel, 48 h
HCC 2998 = tested on: HCC 2998
T47D = tested on: T47D
ACHN = tested on: ACHN
EKVX = tested on: EKVX
HOP-62 = tested on: HOP-62
UO-31 = tested on: UO-31
SF-268 = tested on: SF-268
MOLT-4 = tested on: MOLT-4
MDA-MB-435 = tested on: MDA-MB-435
A498 = tested on: A498
NCI-H23 = tested on: NCI-H23
786-0 = tested on: 786-0
NCI/ADR-RES = tested on: NCI/ADR-RES
COLO 205 = tested on: COLO 205
OVCAR-3 = tested on: OVCAR-3
HCT-15 = tested on: HCT-15
HL-60 = tested on: HL-60
IGROV-1 = tested on: IGROV-1
SF-295 = tested on: SF-295
CAKI-1 = tested on: CAKI-1

SMILES	GI50 (HCC 2998)	GI50 (T47D)	GI50 (ACHN)	GI50 (EKVX)	GI50 (HOP-62)	GI50 (UO-31)	GI50 (SF-268)	GI50 (MOLT-4)	GI50 (MDA-MB-435)	GI50 (A498)	GI50 (NCI-H23)	GI50 (786-0)	GI50 (NCI/ADR-RES)	GI50 (COLO 205)	GI50 (OVCAR-3)	GI50 (HCT-15)	GI50 (HL-60)	GI50 (IGROV-1)	GI50 (SF-295)	GI50 (CAKI-1)
C=C(CCC(C(=O)O)C1CCC2(C)C3=C(CCC12C)C1(C)CCC(O)C(C)(C)C1CC3)C(C)C (stereo not given)	81.7 µM (inactive)	58.1 µM (inactive)	44.7 µM (inactive)	27.5 µM (inactive)	8.91 µM (inactive)	> 100 µM (inactive)	34.4 µM (inactive)	26.9 µM (inactive)	> 100 µM (inactive)	29.9 µM (inactive)	29.6 µM (inactive)	45.1 µM (inactive)	19.3 µM (inactive)	> 100 µM (inactive)	45.6 µM (inactive)	21.8 µM	> 10 µM (inactive)	22.3 µM (inactive)	38.5 µM (inactive)	> 100 µM (inactive)
CN(/N=C/c1ccc(C(=O)O)cc1)C1=NCCCCN1	> 100 µM (inactive)	> 100 µM (inactive)	> 100 µM (inactive)	> 100 µM (inactive)	> 100 µM (inactive)	> 100 µM (inactive)	> 100 µM (inactive)	> 100 µM (inactive)	> 100 µM (inactive)	> 100 µM (inactive)	> 100 µM (inactive)	> 100 µM (inactive)	> 100 µM (inactive)	> 100 µM (inactive)	> 100 µM (inactive)	> 100 µM	> 100 µM (inactive)	> 100 µM (inactive)	> 100 µM (inactive)	> 100 µM (inactive)
O=C1OCC2=C1C(c1ccc3c(c1)OCO3)c1cc3c(cc1O2)OCO3 (stereo not given)	4.42 µM (inactive)	0.7 µM (active)	3.27 µM (inactive)	1.72 µM (inactive)	0.851 µM (active)	1.59 µM (inactive)	1.94 µM (inactive)	0.374 µM (active)	0.0708 µM (active)	1.98 µM (inactive)	1.29 µM (inactive)	0.785 µM (active)	0.255 µM (active)	0.44 µM (active)	2.72 µM (inactive)	0.346 µM	0.134 µM (active)	0.537 µM (active)	3.03 µM (inactive)	0.807 µM (active)
